Test results from patent publication US20260217863A1, “ANTIBODY OR PEPTIDE BINDING SPECIFICALLY TO RNASE A, IMMUNOASSAY DEVICE AND METHOD FOR DETECTING RNASE A, AND METHOD FOR COLLECTING RNASE A” (UIF (University Industry Foundation), Yonsei University, priority 2022, published 2026).
Where no end group is shown, it is not given here.

Biological target: T1, RNase A (Bos taurus, UniProt P61823)
T1 sequence (P61823 27-150): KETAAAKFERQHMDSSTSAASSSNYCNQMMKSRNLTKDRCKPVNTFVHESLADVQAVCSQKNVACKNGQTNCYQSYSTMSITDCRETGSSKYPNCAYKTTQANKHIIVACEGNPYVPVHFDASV
Assay: cCMP hydrolysis assay of RNase A inhibition (absorbance 286 nm)
Assay type: biochemical, bovine
Parameters: Ribonuclease A (Type II-A) from bovine pancreas; purchased Sigma-Aldrich Korea; host or cells: bovine pancreas
Conditions: inhibitor 0.1 nM to 1 μM, linear regression
Protocol: The analysis of RNase A activity inhibition based on 2′,3′-cyclic CMP (cCMP) was performed by measuring the absorbance of cCMP at a wavelength of 286 nm. A mixture was prepared by combining Tris-acetate buffer (500 mM, pH=6.5, 200 μL), EDTA (5 mM, 200 μL), 2′,3′-cCMP (10 mM, 100 μL), RNase A (10 μg/mL, 100 μL), Fv variant (or synthetic peptides in the concentration range of 0.1 nM-1 μM), and DW (filled up to 1000 μL). The absorbance at 286 nm was measured using a Lamda35 UV-VIS spectrophotometer (Perkin-Elmer, MA, USA). The reaction was initiated by adding RNase A to the mixture, and the absorbance was measured every 3 minutes for a total of 30 minutes.
RNase A is known to degrade RNA by cleaving the phosphodiester bonds between nucleotides. The cleavage of the phosphodiester bonds occurs through a two-step reaction: (1) the formation of a […] and (2) the subsequent degradation of a 2′,3′-cyclic phosphate intermediate. […] Specifically, it was utilized that the absorbance at 286 nm quantitatively increases as 3′-CMP increases due to the hydrolysis of cCMP, as shown in FIG. 13. […] The inhibition curves of the Fv antibodies were plotted linearly, and the IC50 values were calculated by linear regression, as shown in FIG. 15. […]
The analysis of RNase A activity inhibition based on 2′,3′-cyclic CMP (cCMP) was performed by measuring the absorbance of cCMP at a wavelength of 286 nm. […] The absorbance at 286 nm was measured using a Lamda35 UV-VIS spectrophotometer (Perkin-Elmer, MA, USA). The reaction was initiated by adding RNase A to the mixture, and the absorbance was measured every 3 minutes for a total of 30 minutes.
RNase A is known to degrade RNA by cleaving the phosphodiester bonds between nucleotides. […] Specifically, it was utilized that the absorbance at 286 nm quantitatively increases as 3′-CMP increases due to the hydrolysis of cCMP, as shown in FIG. 13. […] The inhibition curves of the Fv antibodies were plotted linearly, and the IC50 values were calculated by linear regression, as shown in FIG. 15.

Sequence	IC50 [nM]
DGTAKKSRKDD [Peptide-3]	356
YGPVGRVKRDD [Peptide-2]	373
CGPDSDVMTDF [Peptide-1]	607
